Measured values from US10301295B2, “Herbicidal compounds” (Syngenta Participations AG, priority 2014, dated 2019).
Where two headings read alike, the source gives them in different places.

Assays:
Experiment in all cases: Glasshouse assay for herbicidal activity, pre-/post-emergence (percentage phytotoxicity)
Assay type in all cases: in vivo
[1] = test system: Alopecurus myosuroides (ALOMY); details: Alopecurus myosuroides, Rate 250 g/ha, 100%=total damage, 0%=no damage
Procedure: (§1) Seeds of a variety of monocotyledonous and dicotyledonous test plants are sown in standard soil in pots. The plants are cultivated for one day (for pre-emergence) or for about 12 days (for post-emergence) under controlled conditions in a glasshouse (warm climate species at 24/18° C., cool climate species at 20/16° C., both at day/night; 16 hours light; 65% humidity). The test plants are then grown on, in a glasshouse (greenhouse) under controlled conditions (warm climate species at 24/18° C., cool climate species at 20/16° C., both at day/night; 16 hours light; 65% humidity) and are watered twice daily. 15 days after application of the test herbicide (15DAA) (for post-emergence), and 20 days after application of the test herbicide (20DAA) (for pre-emergence), the test plants are evaluated visually, and an assessed percentage phytotoxicity score is given for each herbicidal application on each plant species (with 100%=total damage to plant; 0%=no damage to plant). The plant species tested are as follows: Alopecurus myosuroides (ALOMY), Avena fatua (AVEFA), Lolium perenne (LOLPE), Echinochloa crus-galli (ECHCG).

Avena fatua (AVEFA) = details: Avena fatua, Rate 250 g/ha, 100%=total damage, 0%=no damage
Procedure: as §1

[2] = test system: Echinochloa crus-galli (ECHCG); details: Echinochloa crus-galli, Rate 250 g/ha, 100%=total damage, 0%=no damage
Procedure: as §1

Lolium perenne (LOLPE) = details: Lolium perenne, Rate 250 g/ha, 100%=total damage, 0%=no damage
Procedure: as §1

[3] = 360 h, post-emergence, visual assessment 15 DAA, read-out: Post-emergence herbicidal activity (percentage phytotoxicity), ALOMY POST
[4] = 480 h, pre-emergence, visual assessment 20 DAA, read-out: Pre-emergence herbicidal activity (percentage phytotoxicity), ALOMY PRE
[5] = post-emergence, 360 h, post-emergence, visual assessment 15 DAA, read-out: Post-emergence herbicidal activity (percentage phytotoxicity), AVEFA POST
[6] = pre-emergence, 480 h, pre-emergence, visual assessment 20 DAA, read-out: Pre-emergence herbicidal activity (percentage phytotoxicity), AVEFA PRE
[7] = post-emergence, 360 h, post-emergence, visual assessment 15 DAA, read-out: Post-emergence herbicidal activity (percentage phytotoxicity), ECHCG POST
[8] = pre-emergence, 480 h, pre-emergence, visual assessment 20 DAA, read-out: Pre-emergence herbicidal activity (percentage phytotoxicity), ECHCG PRE
[9] = post-emergence, 360 h, post-emergence, visual assessment 15 DAA, read-out: Post-emergence herbicidal activity (percentage phytotoxicity), LOLPE POST
[10] = pre-emergence, 480 h, pre-emergence, visual assessment 20 DAA, read-out: Pre-emergence herbicidal activity (percentage phytotoxicity), LOLPE PRE

SMILES | pest or weed control at 250 g/ha [1, 3] [%] | pest or weed control at 250 g/ha [1, 4] [%] | pest or weed control at 250 g/ha (Avena fatua (AVEFA); [5]) [%] | pest or weed control at 250 g/ha (Avena fatua (AVEFA); [6]) [%] | pest or weed control at 250 g/ha [2, 7] [%] | pest or weed control at 250 g/ha [2, 8] [%] | pest or weed control at 250 g/ha (Lolium perenne (LOLPE); [9]) [%] | pest or weed control at 250 g/ha (Lolium perenne (LOLPE); [10]) [%]
Cc1cc(C)c(C2C(=O)CC(CCNc3ccc(C#N)cc3C(F)(F)F)C2=O)c(C)c1 (centres unmarked) [Compound A106] | 90 | 70 | 90 | 40 | 90 | 90 | 90 | 60
Cc1cc(-c2ncc(F)cn2)cc(C)c1C1C(=O)CC(CCNC(=O)C2=NOC(C)(C)C2)C1=O (centres unmarked) [Compound A110] | 100 | 100 | 100 | 90 | 100 | 90 | 90 | 90
Cc1cc(-c2ncc(Cl)cn2)cc(C)c1C1C(=O)CC(CCNC(=O)C2=NOC(C)(C)C2)C1=O (centres unmarked) [Compound A118] | 100 | 100 | 100 | 90 | 100 | 90 | 100 | 90
Cc1cc(-n2cc(Cl)cn2)cc(C)c1C1C(=O)CC(CCNc2ccc(C(F)(F)F)cn2)C1=O (centres unmarked) [Compound A100] | 90 | 60 | 100 | 50 | 100 | 90 | 100 | 70
CNC(=O)NCCC1CC(=O)C(c2c(C)cc(C)cc2C)C1=O (centres unmarked) [Compound A94, 1-[2-[2,4-dioxo-3-(2,4,6-trimethylphenyl)cyclopentyl]ethyl]-3-methyl-urea] | 60 | 80 | 90 | 60 | 90 | 70 | 80 | 100
Cc1cc(-n2cc(Cl)cn2)cc(C)c1C1C(=O)CC(CCNc2ncc(C(F)(F)F)cc2F)C1=O (centres unmarked) [Compound A98] | 90 | 40 | 100 | 70 | 100 | 90 | 90 | 90
Cc1cc(C)c(C2C(=O)CC(CCNc3ccc(C#N)cn3)C2=O)c(C)c1 (centres unmarked) [Compound A107] | 100 | 90 | 100 | 90 | 100 | 100 | 100 | 100
Cc1cc(-c2ccc(C#N)cn2)cc(C)c1C1C(=O)CC(CCNC(=O)C2=NOC(C)(C)C2)C1=O (centres unmarked) [Compound A119] | 90 | 90 | 100 | 80 | 100 | 90 | 100 | 80
C=Cc1cc(C)cc(C)c1C1C(=O)CC(CCNC(=O)C2=NOC(C)(C)C2)C1=O (racemic) [Compound A122, N-[2-[3-(2,4-dimethyl-6-vinyl-phenyl)-2,4-dioxo-cyclopentyl]ethyl]-5,5-dimethyl-4H-isoxazole-3-carboxamide] | 90 | 0 | 90 | 0 | 90 | 0 | 80 | 0
Cc1cc(-c2ncc(Cl)cc2F)cc(C)c1C1C(=O)CC(CCNC(=O)C2=NOC(C)(C)C2)C1=O (centres unmarked) [Compound A117] | 100 | 90 | 100 | 80 | 100 | 80 | 100 | 80
